According to ChEMBL document CHEMBL1132414, “New bicyclam-AZT conjugates: design, synthesis, anti-HIV evaluation, and their interaction with CXCR-4 coreceptor” (J Med Chem, 1999):

Legend:
[1] = in vitro; conditions: human, uninfected MT-4 cells
Description: Concentration required to cause 50% death of uninfected MT-4 cells

[2] = physchem; conditions: octanol/water
Description: Partition coefficient (logP)

[3] = system: Human immunodeficiency virus 1; assay: microbe, parasite or virus in culture; conditions: Human immunodeficiency virus 1, MT4
Description: Concentration required to inhibit syncytia formation by 50% on HIV-1 infected MT-4 cells

[4] = octanol/water
Description: Partition coefficient (logP)

Row | Structure (SMILES) | logP [2] | EC50 [3] [µM] | logP [4] | CC50 [1] [µM]
1 | CC(C)(C)OC(=O)N1CCCN(C(=O)OC(C)(C)C)CCN(C(=O)OC(C)(C)C)CCCN(Cc2ccc(CN3CCCN(C(=O)OC(C)(C)C)CCN(C(=O)OC(C)(C)C)CCCN(C(=O)OC(C)(C)C)CC3)cc2)CC1 | 6.47 | 0.5 | – | 5
2 | CC(C)(C)OC(=O)N1CCCN(C(=O)OC(C)(C)C)CCN(C(=O)OC(C)(C)C)CCCN(C(=O)CCCC(=O)N2CCCN(C(=O)OC(C)(C)C)CCN(C(=O)OC(C)(C)C)CCCN(C(=O)OC(C)(C)C)CC2)CC1 | 6.14 | > 50 | – | 10
3 | Cc1cn(C2CC(N=[N+]=[N-])C(COC(=O)CCCCN3CCCN(C(=O)CCCC(=O)N4CCCN(C(=O)OC(C)(C)C)CCN(C(=O)OC(C)(C)C)CCCN(C(=O)OC(C)(C)C)CC4)CCN(C(=O)OC(C)(C)C)CCCN(C(=O)OC(C)(C)C)CC3)O2)c(=O)[nH]c1=O (stereo not given) | 5.85 | 0.05 | – | 5
4 | Cc1cn(C2CC(N=[N+]=[N-])C(COC(=O)CCCC(=O)N3CCCN(C(=O)OC(C)(C)C)CCN(C(=O)OC(C)(C)C)CCCN(C(=O)OC(C)(C)C)CC3)O2)c(=O)[nH]c1=O (stereo not given) | 2.68 | 0.05 | – | 50
5 | c1cc(CN2CCCNCCNCCCNCC2)ccc1CN1CCCNCCNCCCNCC1 [PLERIXAFOR] | – | 10 | 0.89 | 50
6 | O=C(CCCC(=O)N1CCCNCCNCCCNCC1)N1CCCNCCNCCCNCC1 | 1.05 | 10 | – | 50
7 | CC(C)(C)OC(=O)N1CCCN(C(=O)OC(C)(C)C)CCN(C(=O)c2ccc(C(=O)N3CCCN(C(=O)OC(C)(C)C)CCN(C(=O)OC(C)(C)C)CCCN(C(=O)OC(C)(C)C)CC3)cc2)CCCN(C(=O)OC(C)(C)C)CC1 | 3.46 | 1 | – | 10
8 | O=C(c1ccc(C(=O)N2CCCNCCNCCCNCC2)cc1)N1CCCNCCNCCCNCC1 | -2.11 | 50 | – | 100

More lines, main results first:

Row | logP [2] | EC50 [3] [µM] | logP [4] | Structure (SMILES) | CC50 [1] [µM]
9 | 1.65 | 0.005 | – | Cc1cn(C2CC(N=[N+]=[N-])C(COC(=O)CCCCN3CCCN(Cc4ccc(CN5CCCNCCNCCCNCC5)cc4)CCNCCCNCC3)O2)c(=O)[nH]c1=O (stereo not given) | 75
10 | -0.21 | 0.01 | – | Cc1cn(C2CC(N=[N+]=[N-])C(COC(=O)CCCCN3CCCNCCNCCCNCC3)O2)c(=O)[nH]c1=O (stereo not given) | 30
11 | 2.69 | 0.03 | – | Cc1cn(C2CC(N=[N+]=[N-])C(COC(=O)CCCCN3CCCN(C(=O)c4ccc(C(=O)N5CCCN(C(=O)OC(C)(C)C)CCN(C(=O)OC(C)(C)C)CCCN(C(=O)OC(C)(C)C)CC5)cc4)CCN(C(=O)OC(C)(C)C)CCCN(C(=O)OC(C)(C)C)CC3)O2)c(=O)[nH]c1=O (stereo not given) | 0.5
12 | 1.81 | 0.05 | – | Cc1cn(C2CC(N=[N+]=[N-])C(COC(=O)CCCCN3CCCN(C(=O)CCCC(=O)N4CCCNCCNCCCNCC4)CCNCCCNCC3)O2)c(=O)[nH]c1=O (stereo not given) | 75
13 | -1.35 | 0.01 | – | Cc1cn(C2CC(N=[N+]=[N-])C(COC(=O)CCCCN3CCCN(C(=O)c4ccc(C(=O)N5CCCNCCNCCCNCC5)cc4)CCNCCCNCC3)O2)c(=O)[nH]c1=O (stereo not given) | 75
14 | 0.14 | 0.01 | – | Cc1cn(C2CC(N=[N+]=[N-])C(COC(=O)CCCC(=O)N3CCCNCCNCCCNCC3)O2)c(=O)[nH]c1=O (stereo not given) | 100
15 | 5.7 | 0.005 | – | Cc1cn(C2CC(N=[N+]=[N-])C(COC(=O)CCCCN3CCCN(Cc4ccc(CN5CCCN(C(=O)OC(C)(C)C)CCN(C(=O)OC(C)(C)C)CCCN(C(=O)OC(C)(C)C)CC5)cc4)CCN(C(=O)OC(C)(C)C)CCCN(C(=O)OC(C)(C)C)CC3)O2)c(=O)[nH]c1=O (stereo not given) | 5
